Experimental findings from ChEMBL document CHEMBL1129830, “A convenient synthesis of pseudoceratidine and three analogs for biological evaluation” (1997) are described below.

Converted amounts (≈) assume the structure as drawn.

Common to all, as to format: functional
Experiment [1] relates to Escherichia coli. The experiment in a line: Compound was evaluated for minimal inhibitory concentration against Escherichia coli.
In experiment [2] the test system is Pseudomonas aeruginosa. The experiment in a line: Compound was evaluated for minimal inhibitory concentration against Pseudomonas aeruginosa.
Experiment [3] deals with Serratia liquefaciens. In words: Compound was evaluated for minimal inhibitory concentration against Serratia liquefaciens; Growth delayed by concentrations >= 100 ug/ml.
Experiment [4] concerns Staphylococcus aureus. The experiment in a line: Compound was evaluated for minimal inhibitory concentration against Staphylococcus aureus.
Experiment [5] deals with Listeria monocytogenes. The experiment in a line: Compound was evaluated for minimal inhibitory concentration against Listeria monocytogenes.
For experiment [6], the system named is Serratia liquefaciens. In words: Compound was evaluated for minimal inhibitory concentration against Serratia liquefaciens.
Experiment [7] relates to Pseudomonas aeruginosa. In words: Compound was evaluated for minimal inhibitory concentration against Pseudomonas aeruginosa; Growth delayed by concentrations >= 50 ug/ml and almost totally inhibited by 500 ug/ml.
Experiment [8] deals with Serratia liquefaciens. The experiment in a line: Compound was evaluated for minimal inhibitory concentration against Serratia liquefaciens; Growth delayed by concentrations >= 50 ug/ml and almost totally inhibited by 500 ug/ml.

Turning to `O=C(NCCCNCCCNC(=O)c1cc(Br)c(Br)[nH]1)c1cc(Br)c(Br)[nH]1`, the MIC – broadly, the least concentration at which growth counts as inhibited – in experiment [1] is 50 µg/mL (≈ 79 µM); in experiment [2], 100 µg/mL (≈ 158 µM); in experiment [3], > 500 µg/mL; in experiment [4] it was 10 µg/mL (≈ 15.8 µM); in experiment [5], 10 µg/mL (≈ 15.8 µM).

With `O=C(NCCCCNCCCNC(=O)c1cc(Br)c[nH]1)c1cc(Br)c[nH]1`, the MIC was 250 µg/mL (≈ 511 µM) in experiment [1]; > 500 µg/mL in experiment [2]; > 500 µg/mL in experiment [6]; 100 µg/mL (≈ 204 µM) in experiment [4]; 250 µg/mL (≈ 511 µM) in experiment [5].

As to `O=C(NCCNCCNCCNC(=O)c1cc(Br)c(Br)[nH]1)c1cc(Br)c(Br)[nH]1`, the MIC was 100 µg/mL (≈ 154 µM) in experiment [1]; > 500 µg/mL in experiment [7]; > 500 µg/mL in experiment [8]; 50 µg/mL (≈ 77.2 µM) in experiment [4]; 50 µg/mL (≈ 77.2 µM) in experiment [5].

Take `O=C(NCCCCNCCCNC(=O)c1cc(Br)c(Br)[nH]1)c1cc(Br)c(Br)[nH]1`: the MIC in experiment [1] was 50 µg/mL (≈ 77.3 µM); in experiment [2] it was 250 µg/mL (≈ 386 µM); in experiment [6], > 500 µg/mL; in experiment [4], 5 µg/mL (≈ 7.73 µM); in experiment [5] it was 5 µg/mL (≈ 7.73 µM).
